# Assays:
# Assay type in all cases: cell-based
# [1] = tested on: SVR (H-ras-overexpressing derivative of MS1); experiment: Farnesyl transferase inhibition, cell motility assay in SVR; conditions: SVR cells, FTI-277 10 mm, time zero and four hours, versus control
# Experimental: (§1) Using standard protocols, MS1 (T antigen-immortalized endothelial cells, ATCC) and SVR (H-ras-overexpressing derivative of MS1, ATCC) were plated into macrowells at densities of 12×10^3 and 6×10^3 cells/cm^2, respectively, in DMEM/5% fetal bovine serum. Unattached cells were washed off after 1 hour, and the cells were replenished with fresh media. To the media was also added farnesyl transferase inhibitor (FTI-277, Calbiochem) to concentration of […]. Cells were cultured overnight under fresh media in an incubator at 37° C. and 5% CO2. At the start of experiment, the stencil/first layer was removed after first on the support to allow cell migration. At different time points (time zero and time four hours) images were taken and analyzed for effects of FTI-277 on cell motility. FIG. 21 contains the pictorial results of an assay showing farnesyl transferase inhibition in MS1 and SVR cells.
# [2] = tested on: MS1 (T antigen-immortalized endothelial cells); experiment: Farnesyl transferase inhibition, cell motility assay in MS1; conditions: FTI-277 10 mm, time zero and four hours, versus control
# Experimental: as §1
# [3] = tested on: 769-P cells (renal carcinoma); experiment: Inhibition of cell motility of renal cells via MMP inhibition, 769-P; conditions: various concentrations
# Experimental: (§2) Two renal cell lines were used to study the effect of matrix metalloproteinase (MMP) inhibition on cell motility. Standard protocols were used to plate 100 769-P cells (renal carcinoma, purchased from ATCC) and HK-2 (proximal tubule cells from human kidney, from ATCC) in qualitative cell migration assay plate.
# (§3) After allowing the cells to attach and spread for 8 hours, the stencil and the first layer were removed and MMP inhibitor (GM6001, Calbiochem) was added at various concentrations.
# [4] = tested on: HK-2 (proximal tubule cells from human kidney); experiment: Inhibition of cell motility of renal cells via MMP inhibition, HK-2; conditions: HK-2, various concentrations
# Experimental: as §2, §3
# [5] = tested on: Human microvasular endothelial cells from lung (HMVEC-L); experiment: Microtubule experiments, cell motility/patterning assay; conditions: circular micro-orifice, versus control; agents 10 mg/ml in Example 8
# Experimental: Alternatively, the test agent can be added before the cells have grown to confluency, i.e. the test agent is added to the cells before being patterned through the micro-orifices 300. If the test agent has no effect on cell motility, the cells will spread and achieve the shape of the micro-orifice 300. In FIGS. 16 and 17, a micro-orifice 300 is circular in shape. In the left column of FIGS. 16 and 17 are the control panel, which illustrate the cells having grown to a confluent circular pattern.
# A first layer 150 having multiple orifices was applied to a support 140. The orifices ([…]) were rendered inert to the adsorption of proteins and the adhesion of cells using the standard procedures described in earlier disclosures: silanes terminated with ethylene glycol groups were reacted covalently with the surface of the PDMS devices. The stencil was washed three times with PBS, and vacuum was applied for two minutes to remove air bubbles. Human microvasular endothelial cells from lung (HMVEC-L, Clonetics/Biowhittaker), were seeded into the macro-wells of the stencil at a density of 5×10^3 cells/cm2 into the dishes in growth medium (EGM, Clonetics/Biowhittaker), and washed with fresh medium after an initial attachment period of 30 minutes to one hour. After an overnight incubation in the membranes, cells were treated with the following microtubule-disrupting agents: nocodazole (10 mg/ml), colchicine (10 mg/ml), vinblastine (10 mg/ml), or paclitaxel (10 mg/ml). Control cells were left untreated. Two different experiments were then performed. In the first experiment, cells were treated with the compounds while maintained within the macro-wells of the stencil. After two hours of treatment, the cells were imaged, the stencil was peeled off, and the cells were fixed with cold methanol (−20° C.) for ten minutes and washed three times with PBS. Immunofluorescence staining was performed using a monoclonal antibody to alpha-tubulin (1:100 dilution, DM1a, Sigma), followed by a FITC-conjugated goat anti-mouse antibody (25 mg/ml, Rockland Immunochemicals) and DAPI (3 mg/ml, Sigma) to stain the nucleus. Stained cells were mounted under a glass coverslip with Fluoromount G (Southern Biotechnology Associates) and imaged in a Zeiss fluorescence microscope.
# In the second experiment, the stencil was peeled at the time of compound addition. After two hours of treatment, one set of samples was fixed and stained as described above. Another set of samples was left in the treatment compound and imaged over time, to monitor cell motility. Images were taken at 0, 2, 4, 8, and 24 hours. Cell motility was determined by taking the average diameter of the micro-regions, using ImageProPlus imaging software.
# [6] = tested on: NIH-3T3 fibroblast cells; experiment: Cell migration/motility assay, 3T3/TAXOL; conditions: 2 hours and 5 hours after removal of first layer, versus control cells
# Text: The cell migration/motility assay of the present invention allows one to study the effect of test agents and others both on cell motility and on cell shape. For example, cells may be patterned through micro-orifices, such as micro-orifices 300, of the first layer 150. The cells are allowed to attach to the support 140 and to grow to confluence. The walls of the micro-orifice 300 constrain the cell(s) and the cells take on the shape of the micro-orifice 300, e.g., circular. A test agent is applied through the micro-orifices 300 and is allowed to contact the cells. The first layer 150 is removed and the cells are observed. If the test agent affects cell movement, the cell will be “stuck” in place as it was patterned and may not change shape, i.e., it will remain circular if the patterning member had circular orifices. […] FIG. 15(b) is a graph of the effect of various concentrations of taxol on cell movement as performed by a cell migration/motility assay of the present invention.
# Macro-wells orifices of a stencil engaged with a support were filled with PBS and a vacuum was applied for two minutes to remove air bubbles. NIH-3T3 fibroblast cells (prelabeled with green cell tracker, CMFDA, Molecular Probes) were collected in DMEM/10% bovine calf serum and plated in the macro-wells at a concentration of 2×10^4 cells/cm2. After one hour, unadhered cells were washed off with fresh medium. […]
# [7] = tested on: endothelial cells; experiment: Cell motility assay using endothelial cells with agonists and antagonists (FIG. 25); conditions: FIG. 25A
# Experimental: FIG. 25 depicts a particular cell motility assay using endothelial cells and agonists and antagonists of such cells. […] In FIG. 25B, the concentration of VEGF is fixed. An antibody to VEGF is added in various concentrations. […] When an inhibitor to the VEGF receptor is added, the cells migrate at a such slower rate as depicted in FIG. 25C. […] Normally enzyme inhibition screens involve proteins and their substrates and not cells. FIG. 25D depicts enzyme inhibition screens in a cell based context.
compound,measurement,setting,value
COC(=O)[C@H](CCSC)NC(=O)c1ccc(NC[C@@H](N)CS)cc1-c1ccccc1 [FTI-277],cell migration away from original starting positions,[1],control cells are shown to have migrated further away from their original starting positions than the cells treated with FTI
same,cell migration away from original starting positions,[2],control cells are shown to have migrated further away from their original starting positions than the cells treated with FTI
CNC(=O)[C@H](Cc1c[nH]c2ccccc12)NC(=O)[C@@H](CC(=O)NO)CC(C)C [GM6001],cell motility,[3],reduces cell motility
same,cell motility,[4],no effect
COc1cc2c(c(OC)c1OC)-c1ccc(OC)c(=O)cc1[C@@H](NC(C)=O)CC2 [colchicine],cellular movement / achieving circular confluent pattern,[5],cellular movement arrested
COC(=O)Nc1nc2ccc(C(=O)c3cccs3)cc2[nH]1 [nocodazole],cellular movement / achieving circular confluent pattern,[5],cellular movement arrested
"CC(=O)O[C@H]1C(=O)[C@@]2(C)[C@H]([C@H](OC(=O)c3ccccc3)[C@]3(O)C[C@H](OC(=O)[C@H](O)[C@@H](NC(=O)c4ccccc4)c4ccccc4)C(C)=C1C3(C)C)[C@]1(OC(C)=O)CO[C@@H]1C[C@@H]2O [taxol, paclitaxel]",cell movement away from original pattern,[6],retained their original circular pattern
same,cellular movement / achieving circular confluent pattern,[5],cellular movement arrested
CC[C@]1(O)C[C@@H]2CN(CCc3c([nH]c4ccccc34)[C@@](C(=O)OC)(c3cc4c(cc3OC)N(C)[C@H]3[C@@](O)(C(=O)OC)[C@H](OC(C)=O)[C@]5(CC)C=CCN6CC[C@]43[C@@H]65)C2)C1 [vinblastine],cellular movement / achieving circular confluent pattern,[5],cellular movement arrested
VEGF,cell migration,[7],stimulates cells to migrate

# Source: patent US20070038384A1, “Devices and assays for monitoring/measuring cellular dynamics to create subject profiles from primary cells” (priority 2003, published 2007)
